Assay results as given in US10028992B2, “Methods of treating muscular dystrophy” (BOARD OF REGENTS OF THE NEVADA SYSTEM OF HIGHER EDUCATION …, priority 2012, dated 2018).
Where “and” joins values, the source holds several entries; their conditions need not be identical. Equal values may be shown once.

Test system: α7 integrin promoter
Test: muscle cell-based assay: α7βgal+/− myoblasts/myotubes, LacZ reporter, β-galactosidase cleavage of FDG
Design: species or system mouse; Results in α7+/− β-galactosidase assay: scale not given here
Details: Myoblasts
Procedure, shortened: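 Fluorescein generated from FDG by β-galactosidase reports α7 integrin promoter activity in differentiated myoblasts from α7+/− LacZ knock-in pups. Screening hits then went to dose-response, western blotting and a myostatin counterscreen.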

Compound	Results in α7+/− β-galactosidase assay (0.5 uM)	Results in α7+/− β-galactosidase assay (1 uM)	Results in α7+/− β-galactosidase assay (5 uM)	Results in α7+/− β-galactosidase assay (10 uM)	Results in α7+/− β-galactosidase assay (20 uM)	Results in α7+/− β-galactosidase assay (40 uM)
CC(C)Oc1cccc(C(=O)Nc2ccc(CN3CCOCC3)cc2)c1 [drawing 563]	−0.0458	−0.04183	0.01603	0.2092	0.7886	−0.0962
Cc1ccc(/C=C2\C(=O)Nc3ccccc32)o1 [drawing 564]	0.06962	0.01537	−0.08809	−0.1824	−0.2196	−0.6995
O=c1[nH]c(CN2CCCCC2)cc2c1C1(CCCCC1)Cc1ccccc1-2 [drawing 565]	0.03731	−0.01272	−0.01947	−0.1479	0.1068	−0.1465
COc1ccccc1NS(=O)(=O)c1cc(NC(=O)c2ccc(Cl)nc2)ccc1N1CCCC1 [drawing 566]	0.1257	0.1127	0.06786	0.0849	−0.1817	−0.2311
N#C/C(=C1/C(=O)Nc2ccc(Br)cc21)c1ccccn1 [drawing 567]	0.2021	0.000395	−0.2923	−0.4689	−0.5478	−0.6637
N#CC1=C2SCN(c3ccccc3)CN2C(=O)CC1c1cccs1 (stereo not shown) [drawing 568]	−0.02125	−0.07703	−0.07651	−0.05714	0.1121	−0.08344
COc1ccc(C(=O)/C=C2\C(=O)Nc3ccccc32)cc1 [drawing 569]	0.002308	−0.1094	−0.5146	−0.6859	−0.703	−0.8556
O=C(O)c1csc(-c2cccs2)n1 [drawing 570]	0.0287	−0.01442	0.8119	−0.08869	0.1022	−0.04959
COc1cccc(C(=O)COc2ccc3ccc(=O)oc3c2)c1 [drawing 571]	0.09281	0.06053	−0.01266	0.02813	0.004164	−0.04457
CCCS(=O)(=O)c1nc(S(=O)(=O)c2ccc(C)cc2)c(N2CCCC2)s1 [drawing 572]	0.06463	0.01847	−0.2102	−0.5196	−0.8221	−0.878
OC(c1nc2cc(F)ccc2[nH]1)C(O)c1nc2cc(F)ccc2[nH]1 (stereo not shown) [drawing 573]	0.08093	0.2145	−0.08597	−0.1055	0.001076	−0.1048
COc1ccc(OC)c(NC(=O)CN2CCC(NC(=O)c3ccccc3C)CC2)c1 [drawing 574]	0.0132	0.06975	0.04855	−0.0931	0.06823	0.04785
O=C(CCc1ccccc1)c1nnc(-c2ccccc2)o1 [drawing 575]	0.0917	0.1045	0.03485	−0.04687	−0.02713	−0.06265
COc1ccc(/N=N/c2ccc(N)nc2N)cc1 [drawing 576]	0.2183	0.2858	0.06976	0.01151	0.0406	−0.04372
N=C(NOC(=O)c1cccc(C(F)(F)F)c1)c1cnccn1 [drawing 577]	−0.05513	0.02871	−0.00636	−0.02595	0.07472	0.1346
CCOc1ccc2nc(Cl)sc2c1 [drawing 578]	−0.06751	0.05388	0.04367	−0.03134	0.1725	0.1336
COc1ccc(CNC(=O)C2CCCN(S(=O)(=O)c3c(C)noc3/C=C/N(C)C)C2)cc1 (stereo not shown) [drawing 579]	−0.00404	0.03462	−0.04768	−0.2043	−0.2235	−0.5821
CC(O)CNc1nc2c(c(=O)n(Cc3ccc(Br)cc3)c(=O)n2C)n1C (stereo not shown) [drawing 580]	0.04963	0.02595	−0.05885	−0.1174	−0.1471	−0.218
COc1ccc(Cl)cc1NC(=O)c1cc(-c2cc(C)ccc2O)[nH]n1 [drawing 581]	0.01879	0.1148	−0.07708	−0.1804	−0.08756	−0.06105
CCC(C)C(CC)NC(=O)CSc1nnc(COc2ccc(Cl)cc2)o1 (stereo not shown) [drawing 582]	0.3279	0.05348	0.1357	−0.1014	−0.1787	−0.4133
N#Cc1ccc(Sc2nc3ccccc3[nH]2)cc1C#N [drawing 584]	0.3095	0.07925	0.2487	0.1199	0.003655	−0.1111
COc1cc(/C=C/CN2CCN(Cc3ccc(C)o3)C(CCO)C2)ccc1O (stereo not shown) [drawing 585]	–	–	0.1427 and 0.1728	–	–	–
COc1ccccc1C(=O)OCc1ccc2sc(C)nc2c1 [drawing 586]	0.191	−0.07182	0.1329	0.00833	0.1184	0.01583
NC(=O)COc1ccc(C(=O)/C=C2\C(=O)Nc3ccccc32)cc1 [drawing 587]	0.211	−0.06344	−0.1959	−0.647	−0.8153	−0.9741
